Our source for the GI50 and TGI values is PubChem BioAssay (NCI).

Each structure is given as a SMILES string.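 The compound was tested at five concentrations on cells cultured in 96-well plates, with a 48-hour exposure period. Abbreviation: GI50, concentration required for 50% inhibition of growth. TGI: concentration producing complete growth inhibition.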 Where only a bound is given, the exact number is not on record here.

Common to all, as to test: NCI anticancer screen, dose series, 48 h
For experiment [1], the system named is HCT-116 colon.
The subject of experiment [2] is HL-60(TB) leukemia.
Experiment [3] has as its system SF-268 CNS.
Experiment [4] concerns SF-539 CNS.
Experiment [5] deals with SK-MEL-5 melanoma.
For experiment [6], the system named is SK-OV-3 ovarian.
In experiment [7] the test system is SR leukemia.
The test system of experiment [8] is TK-10 renal.
Experiment [9] deals with MALME-3M melanoma.
Experiment [10] relates to NCI-H23 lung.

With `O=C(CCCCC(=O)N/N=C\c1ccccc1O)N/N=C\c1ccccc1O`, the GI50 is 3.69 µM in experiment [1]; 3.07 µM in experiment [2]; 1.72 µM in experiment [3]; 3.66 µM in experiment [4]; 3.22 µM in experiment [5]; 5.63 µM in [6]. For the same molecule, the GI50 in [7] was 2.84 µM; in experiment [8], 6.4 µM. For the same molecule, the TGI in [1], in [2], in [3], in [4], in [5] and in experiment [6] was greater than 100 µM in each case. Also, the TGI in [7] and in [8] was greater than 100 µM each time.

Take `COc1ccccc1C(=O)N(C)c1ccc(Cl)c(C(=O)OC(C)C)c1`: the TGI in [1] is greater than 100 µM; in experiment [9], greater than 100 µM; in experiment [10], greater than 100 µM; in experiment [3] it was greater than 100 µM; in experiment [4], greater than 100 µM; in experiment [5] it was 58.3 µM. Moreover, the TGI in experiment [6] and in experiment [8] was greater than 100 µM each time.

`CC(=O)[O-].O=C([CH-]C(=O)c1ccccc1)c1ccccc1.O=C([CH-]C(=O)c1ccccc1)c1ccccc1.[Sm+3]`: the GI50 in experiment [1] was 5.05 µM; in experiment [2], 1.66 µM; in experiment [9], 4.08 µM; in experiment [10], 3.1 µM; in experiment [3] it was 3.39 µM; in experiment [4], 14.6 µM. In addition, the GI50 in [5] is 1.66 µM; in experiment [6], 6.18 µM; in experiment [8] it was 6.41 µM. Moreover, the TGI in [1] turned out to be 18.2 µM; in experiment [2], 7.08 µM; in experiment [9], 34 µM; in [10], 15.5 µM; in [3], 24.5 µM; in [4] it was 45.2 µM. In addition, the values for the TGI in [5], in experiment [6] and in [8] were 10.2 µM, 37.4 µM and 48.7 µM, respectively.

Take `Cn1c(=O)c2/c(n(C)c1=O)=N\C=c1\c(=O)n(C)c(=O)n(C)\c1=N\C=2`: the TGI in experiment [1], in experiment [2], in [9], in experiment [10], in experiment [3] and in [4] was greater than 100 µM throughout. Moreover, the TGI in experiment [5] and in experiment [8] was greater than 100 µM each time.

Take `COc1cc(NC(=O)C2=C(N3CCOCC3)/C(=C/c3ccc(Cl)cc3)CC2)cc(OC)c1OC`: the GI50 was 28.5 µM in experiment [1]; greater than 100 µM in [2]; greater than 100 µM in experiment [9]; 48.8 µM in [10]; 20 µM in [3]; 36 µM in [4]. The GI50 in [5] was greater than 100 µM; in experiment [6], 21.7 µM; in [8], 27.9 µM. Also, the TGI in [1], in experiment [2], in [9], in experiment [10], in experiment [3] and in experiment [4] was greater than 100 µM throughout. Further, the results for the TGI in [5], in [6] and in experiment [8] were greater than 100 µM, 62.8 µM and 86.5 µM, respectively.

Turning to `C=C1C(=O)O[C@H]2[C@H]1CC/C(COC(=O)NCc1ccc(Cn3c(=O)sn(-c4ccccc4)c3=O)cc1)=C\CC[C@@]1(C)O[C@@H]21`, the GI50 in experiment [1] is 1.52 µM; in experiment [9], 2.09 µM; in experiment [10], 3.55 µM; in experiment [3], 2.21 µM; in experiment [4], 1.57 µM; in experiment [5], 3.24 µM. Further, the GI50 in [6] was 14.1 µM; in experiment [8], 2.21 µM. Further, the TGI turned out to be 2.95 µM in [1]; 4.06 µM in experiment [9]; 12.6 µM in experiment [10]; 5 µM in experiment [3]; 3.06 µM in experiment [4]; 11.5 µM in experiment [5]. Besides, the TGI in experiment [6] amounted to 27.4 µM; in experiment [8], 4.05 µM.

As to `O=C1CSc2cc([N+](=O)[O-])ccc2N1`, the TGI in [1], in experiment [9], in [10], in experiment [3], in [4] and in experiment [5] was greater than 100 µM in each case. For the same molecule, the TGI in [6] and in experiment [8] was greater than 100 µM throughout.

Turning to `Cn1cccc1/C=C/c1cc(Br)c(/C=C/c2cccn2C)cc1Br`, the TGI is 43.4 µM in [1]; 32.4 µM in experiment [2]; 31.2 µM in [9]; 91.9 µM in [3]; 31.5 µM in experiment [4]; 32 µM in [5]. Besides, the TGI in experiment [6] was 30.3 µM; in experiment [8], 45.3 µM.

Take `Brc1cc2c(cc1Br)CN(c1ccccc1)C2`: the TGI in experiment [1], in experiment [2], in experiment [9], in [10], in experiment [3] and in experiment [4] was greater than 100 µM throughout. The TGI in experiment [5], in [6] and in experiment [8] was greater than 100 µM each time.

Take `CN(C)C(=O)Oc1c(-c2ccccc2)c(=O)n2c3ccccc3n3c(=O)n(C)c(=O)c1c23`: the TGI in experiment [1], in experiment [9], in experiment [10], in [3], in experiment [4] and in experiment [5] was greater than 100 µM throughout. For the same molecule, the TGI in experiment [6], in experiment [7] and in experiment [8] was greater than 100 µM in each case.

As for `O=C1/C(=C/c2ccc(Br)cc2)CCC/C1=C\c1ccc(Br)cc1`, the TGI in experiment [1] is 3.1 µM; in [2], 13.5 µM; in [9], 51 µM; in experiment [10], 21.2 µM; in experiment [3], greater than 100 µM; in experiment [4], 33.8 µM. For the same molecule, the TGI is 27.1 µM in experiment [5], greater than 100 µM in experiment [6] and 83.1 µM in experiment [8].
